{"source": "patent US6509043B1", "about": "“Composition comprising soy protein, dietary fibres and a phytoestrogen compound and use thereof in the prevention and/or treatment of pulmonary diseases” (Nutri Pharma ASA, priority 2001, dated 2003)", "origin": "cited, not measured here", "system": "estrogenic effect", "conditions": "in vitro; reported by Knight (Maturitas 22, 167-175 (1995))", "data": [{"smiles": "O=c1c(-c2ccc(O)cc2)coc2cc(O)ccc12", "note": "[daidzein]", "values": [{"measurement": "relative estrogenic potency as compared to estradiol (relative potency of 100)", "value": 0.013}]}]}
